Assay: Phase I clinical trial: pharmacokinetic analysis of TLC388HCl diastereomers and metabolites after IV infusion
[1] = Day 1, dose group 1.5 mg/m^2 TLC388HCl, Mean (SD)
[2] = Day 1, dose group 3.0 mg/m^2 TLC388HCl, Mean (SD)
[3] = Day 1, dose group 6.0 mg/m^2 TLC388HCl, Mean (SD)
[4] = Day 1, dose group 9.0 mg/m^2 TLC388HCl, Mean (SD)
[5] = Day 1, dose group 20.0 mg/m^2 TLC388HCl, Mean (SD)
[6] = Day 1, dose group 30.0 mg/m^2 TLC388HCl, Mean (SD)
[7] = Day 1, dose group 35.0 mg/m^2 TLC388HCl, Mean (SD)
[8] = Day 1, dose group 40.0 mg/m^2 TLC388HCl, Mean (SD)
[9] = Day 1, dose group 50.0 mg/m^2 TLC388HCl, Mean (SD)
[10] = Day 1, dose group 60.0 mg/m^2 TLC388HCl, Mean (SD)
[11] = Day 8, dose group 1.5 mg/m^2 TLC388HCl, Mean (SD)
[12] = Day 8, dose group 3.0 mg/m^2 TLC388HCl, Mean (SD)
[13] = Day 8, dose group 6.0 mg/m^2 TLC388HCl, Mean (SD)
[14] = Day 8, dose group 9.0 mg/m^2 TLC388HCl, Mean (SD)
[15] = Day 8, dose group 20.0 mg/m^2 TLC388HCl, Mean (SD)
[16] = Day 8, dose group 30.0 mg/m^2 TLC388HCl, Mean (SD)
[17] = Day 8, dose group 35.0 mg/m^2 TLC388HCl, Mean (SD)
[18] = Day 8, dose group 40.0 mg/m^2 TLC388HCl, Mean (SD)
[19] = Day 8, dose group 50.0 mg/m^2 TLC388HCl, Mean (SD)
[20] = Day 8, dose group 60.0 mg/m^2 TLC388HCl, Mean (SD)
[21] = patients treated with 60 mg/m^2 of TLC388HCl (N = 6)

Description: A non-randomized phase I clinical trial was conducted at 4 institutions in the US and Taiwan.
Patients were included in this trial if they are over the age of 18, with advanced cancer and the ECOG performance status is 0 or 1. […] Patients were excluded from the study if they have previously received more than 3 regimens of chemotherapy, or if they have received chemotherapy or radiotherapy within 4 weeks of the trial recruitment.
Eligible patients were given the pharmaceutical composition of the present invention, comprising a mixture of TLC388HCl and mPEG2000-DSPE in a molar ratio of 1:0.7 to 1:0.9 (known as Lipotecan®). […] The pharmaceutical composition was administered as a 30-min IV infusion, on days 1, 8, and 15 of a 28-day cycle (i.e. 3 IV infusions per 28-day cycle).
Serum samples were collected from the patients for pharmacokinetic analysis on day 1, day 8 and day 15 of Cycles 1 and 2, at the following times:
Post IV infusion: (Day 1 and 8 of Cycle 1): 33 min; 40 min; 50 min; 1 h; 1 h 30 min; 2 h; 4 h and 8 h. Post IV infusion (Day 15 of Cycle 1 and Day 1, 8, and 15 of Cycle 2): 4 h. Patients were assessed every 8 weeks, after 2 cycles of treatments.
During the 2-cycle study period, the patients were examined regularly for the following outcomes: • Side effect/DLT; • The pK profiles of the (S,S) and (S,R) diastereomers of TLC388HCl, its 3 metabolites (TLC-U1, TLC-U2 and Topotecan) on day 1 and day 8 of the treatment cycle; and • Anti-cancer efficacy.

CCC1(OC(=O)C(C)ON=C2c3cc([N+](=O)[O-])cc([N+](=O)[O-])c3-c3c2cc([N+](=O)[O-])cc3[N+](=O)[O-])C(=O)OCc2c1cc1n(c2=O)Cc2cc3c(CN(C)C)c(O)ccc3nc2-1.Cl (stereo not drawn) [S,S TLC388HCl]
difference between PK profiles on Day 1 and Day 8 (Cycle 1): no significant difference
AUC0-t [1]: 2.190 ng·h/mL
Cmax [1]: 4.492 ng/mL
Tmax [1]: 0.606 (0.106) hr
t1/2 [1]: 2.792 (3.856) hr
AUC0-t [2]: 6.136 ng·h/mL
Cmax [2]: 3.857 ng/mL
Tmax [2]: 0.933 (0.936) hr
AUC0-t [3]: 1.866 ng·h/mL
Cmax [3]: 5.763 ng/mL
Tmax [3]: 0.467 (0.209) hr
AUC0-t [4]: 1.141 ng·h/mL
Cmax [4]: 2.985 ng/mL
Tmax [4]: 0.429 (0.212) hr
t1/2 [4]: 0.074 (0.033) hr
AUC0-t [5]: 14.699 ng·h/mL
Cmax [5]: 51.193 ng/mL
Tmax [5]: 0.250 (0.000) hr
t1/2 [5]: 0.432 (0.260) hr
AUC0-t [6]: 5.227 ng·h/mL
Cmax [6]: 18.623 ng/mL
Tmax [6]: 0.454 (0.276) hr
t1/2 [6]: 0.160 (0.034) hr
AUC0-t [7]: 212.19 ng·h/mL
Cmax [7]: 417.03 ng/mL
Tmax [7]: 0.679 (0.116) hr
t1/2 [7]: 2.221 (0.789) hr
AUC0-t [8]: 17.287 ng·h/mL
Cmax [8]: 47.220 ng/mL
Tmax [8]: 0.415 (0.152) hr
t1/2 [8]: 0.457 (0.812) hr
AUC0-t [9]: 23.967 ng·h/mL
Cmax [9]: 76.840 ng/mL
Tmax [9]: 0.403 (0.143) hr
t1/2 [9]: 0.218 (0.075) hr
AUC0-t [10]: 18.196 ng·h/mL
Cmax [10]: 103.16 ng/mL
Tmax [10]: 0.357 (0.148) hr
t1/2 [10]: 0.546 (0.353) hr
AUC0-t [11]: 0.608 ng·h/mL
Cmax [11]: 1.297 ng/mL
Tmax [11]: 0.489 (0.215) hr
t1/2 [11]: 0.093 h
AUC0-t [12]: 0.852 ng·h/mL
Cmax [12]: 2.902 ng/mL
Tmax [12]: 0.350 (0.173) hr
AUC0-t [13]: 3.152 ng·h/mL
Cmax [13]: 12.160 ng/mL
Tmax [13]: 0.467 (0.209) hr
t1/2 [13]: 0.045 h
AUC0-t [14]: 7.000 ng·h/mL
Cmax [14]: 4.776 ng/mL
Tmax [14]: 2.408 (3.729) hr
t1/2 [14]: 0.195 h
AUC0-t [15]: 7.369 ng·h/mL
Cmax [15]: 24.533 ng/mL
Tmax [15]: 0.328 (0.135) hr
t1/2 [15]: 0.509 (0.731) hr
AUC0-t [16]: 28.454 ng·h/mL
Cmax [16]: 58.903 ng/mL
Tmax [16]: 0.587 (0.167) hr
t1/2 [16]: 0.114 (0.061) hr
AUC0-t [17]: 208.58 ng·h/mL
Cmax [17]: 616.50 ng/mL
Tmax [17]: 0.621 (0.141) hr
t1/2 [17]: 4.009 (1.684) hr
AUC0-t [18]: 58.170 ng·h/mL
Cmax [18]: 127.39 ng/mL
Tmax [18]: 0.303 (0.113) hr
t1/2 [18]: 0.429 (0.687) hr
AUC0-t [19]: 58.594 ng·h/mL
Cmax [19]: 150.12 ng/mL
Tmax [19]: 0.297 (0.104) hr
t1/2 [19]: 0.817 (1.200) hr
AUC0-t [20]: 24.500 ng·h/mL
Cmax [20]: 87.780 ng/mL
Tmax [20]: 0.403 (0.143) hr
t1/2 [20]: 0.971 (0.667) hr
Cmax and AUC compared with S,R-TLC388HCl (at all dose levels): higher than those of S,R-TLC388HCl
Dose-normalized AUClast [21]: 1.22 ± 2.87 nM*h/(mg/m^2)
Dose-normalized Cmax [21]: 2.60 ± 6.02 nM/(mg/m^2)
Tmax [21]: 0.47 ± 0.3 h
t1/2 [21]: 0.75 ± 1.18 h
half-life (plasma, after IV administration of TLC388HCl composition): a few minutes

— patent US20140135357A1, “DOSE REGIME FOR CAMPTOTHECIN DERIVATIVES” (Taiwan Liposome Company, Ltd., priority 2012, published 2014)
